One may read the IC50 as the concentration at which inhibition is half-maximal. The solubility is the dissolved amount per volume that the medium holds. Higher therefore signals a readily soluble substance. The Ki is the equilibrium dissociation constant of an inhibitor or competing ligand from its target.

Values after ≈ are worked out from the molar mass of the structure shown.

Series [1] addresses Tyrosine-protein kinase BTK (Homo sapiens, UniProt Q06187). The series is described as follows: Inhibition of BTK in human whole blood. The class given is tissue-based.
Series [2] can be described thus: Aqueous solubility of the compound. The class given is physicochemical.
In series [3] the target is Human immunodeficiency virus type 1 protease (Human immunodeficiency virus 1, UniProt Q72874). Nature of the series: Binding affinity to HIV-1 protease assessed as inhibition constant incubated for 60 mins by mass spectrometric analysis.

Chain of Tyrosine-protein kinase BTK (Q06187 whole entry): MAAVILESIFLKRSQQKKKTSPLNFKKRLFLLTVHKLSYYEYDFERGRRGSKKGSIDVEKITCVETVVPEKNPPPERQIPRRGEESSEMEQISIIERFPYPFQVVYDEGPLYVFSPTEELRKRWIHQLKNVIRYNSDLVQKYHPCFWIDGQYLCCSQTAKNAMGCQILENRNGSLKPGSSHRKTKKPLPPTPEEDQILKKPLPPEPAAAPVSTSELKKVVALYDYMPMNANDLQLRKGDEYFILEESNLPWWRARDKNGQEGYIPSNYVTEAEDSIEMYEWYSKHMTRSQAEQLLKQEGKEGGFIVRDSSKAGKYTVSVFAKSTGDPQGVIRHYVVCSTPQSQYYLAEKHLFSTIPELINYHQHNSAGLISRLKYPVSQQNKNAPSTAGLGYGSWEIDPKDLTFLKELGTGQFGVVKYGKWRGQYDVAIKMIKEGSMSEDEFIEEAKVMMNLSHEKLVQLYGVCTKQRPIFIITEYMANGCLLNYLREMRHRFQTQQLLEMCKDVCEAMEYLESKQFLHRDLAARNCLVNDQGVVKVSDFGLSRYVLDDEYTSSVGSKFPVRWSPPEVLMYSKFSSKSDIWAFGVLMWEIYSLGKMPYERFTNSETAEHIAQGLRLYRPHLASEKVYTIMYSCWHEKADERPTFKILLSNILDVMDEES

`Cn1cc(-c2cccc(-n3ncc4cc(C(C)(C)C)cc(F)c4c3=O)c2CO)cc(Nc2ccc(C(=O)N3CCOCC3)cn2)c1=O` came in with a concentration for half-maximal inhibition (IC50) in series [1] of 1 nM.

In turn, `Cn1c2c(cc(Nc3ccc(C(=O)N4CCOCC4)cn3)c1=O)-c1cccc(-n3ncc4cc(C(C)(C)C)cc(F)c4c3=O)c1C[C@H](O)C2` registered a solubility in series [2] of 1 µg/mL (≈ 1.5 µM).

With `CC(C)[C@H]1Cc2cc(F)ccc2S(=O)(=O)N(C[C@@H](O)[C@H](Cc2ccccc2)NC(=O)O[C@H]2CCOC2)C1`, in series [3], the inhibitory constant (Ki) worked out at 0.36 nM.
